Measurements taken from doi:10.1101/2021.12.13.472350v1, “An amphipathic and cationic antimicrobial peptide kills colistin resistant Gram-negative pathogens in vivo” (bioRxiv, 2021).
In brackets after ≈: the same amount, converted by molar mass.

Tests used:
HeLa cells = details: ChIP concentrations of 40 µg/ml and above, 24 hours, DMEM without serum, Trypan Blue, triplicate
Experimental: HeLa cells were cultured in Dulbecco’s Modified Eagles Medium (DMEM) (Sigma) supplemented with 10% fetal calf serum (Sigma) and 2 mM glutamine at 37°C in a humid incubator with 5% CO2. Cell survival after 24 hours with various amounts of ChIP in DMEM without serum was determined by staining with Trypan Blue Stain (Gibco/Life Technologies). Experiments were performed in triplicate.

[1] = system: Acinetobacter baumannii ATCC 19606; details: ATCC 19606, reference strain; MHB-II, 37°C, ~5×10^5 CFU/ml, triplicate
[2] = system: E. coli ML-35p inner membrane; assay: Permeabilization assay (ONPG / β-galactosidase); assay type: cell-based; details: ChIP 4, 12 and 20 µg/ml for 20, 40 or 60 minutes; chloramphenicol 200 µg/ml pretreated; level higher than toluene or colistin 2 µg/ml
Experimental: Exponentially growing cells of E. coli ML35 (LacI^- LacY^- LacZ^+) were treated with chloramphenicol (200 µg/ml) to stop protein synthesis. Chloramphenicol treated samples were incubated with ChIP (4, 12 and 20 µg/ml) and colistin (2 µg/ml) for 20, 40 or 60 minutes (12 samples total). 200 µL peptide treated cells were added to 1 ml Z-buffer (0.06M Na2HPO4, 0.04M NaH2PO4, 0.01M KCL, 0.001M MgSO4 and pH = 7) containing 1 mg/ml Ortho-Nitrophenyl-β-galactoside (ONPG). Samples were left at room temperature 15 minutes before stopping color development by addition of 0.5 ml Na2CO3 (1M). Toluene treated cells were included as a control for permeabilized cells. β-galactosidase activity was detected by OD420 measurements.

[3] = system: Klebsiella pneumoniae ATCC 13883; details: ATCC 13883, reference strain; MHB-II, 37°C, ~5×10^5 CFU/ml, triplicate
E. coli ATCC 25922 [4] = assay: In vivo sepsis/peritonitis mouse infection model; details: NMRI mice infected IP
A. baumannii ATCC 19606 = assay: In vivo sepsis/peritonitis mouse infection model; details: NMRI mice infected IP, 10 mg/kg IP at 1 and 3 h
E. coli MG1655 = assay: Macromolecular incorporation assay; assay type: cell-based; details: 10xMIC, high cell density (OD600 = 0.1, approximately 1×10^8 CFU/ml), AB minimal medium
Experimental: Bacteria were grown in cation adjusted Müller-Hinton broth (MHB-II; Sigma-Aldrich) for MIC or Luria-Bertani (LB) broth at 37°C, supplemented with relevant antibiotics when required. For macromolecular incorporation measurements cells were grown in AB minimal medium ([65]) supplemented with 10 μg/ml thiamine and 0.2% glucose without Cas amino acids. Except for glucosamine incorporation where 0.2% glycerol was used as carbon source. Growth rate of the mcr-1 carrying BW25113 strain was determined in MHB-II on exponentially growing cells by measuring OD600 over time.
Macromolecular synthesis was determined by incorporation of […], 3H-arginine or 3H-glucosamine into DNA, RNA, proteins and cell wall respectively, as described previously ([66]). Briefly, 500 µl samples of exponentially growing MG1655 cells were incubated with 0.375 µCi of the relevant precursor for 2 minutes (uridine), 4 minutes (thymidine and arginine), and 20 minutes (glucosamine). Reactions were stopped by adding 5 ml of ice-cold 5% TCA containing 0.1 M NaCl. Samples were filtered (ADVANTEC®, 25mm, lot no: 80302708) washed twice and dried overnight in scintillation vials (PV1AS, MERIDIAN, BIOTECHNOLOGIES Ltd) before counting on a HINDEX 300SL in 5 ml of scintillation fluid (Scintillation fluid, ULTIMA GOLD™, Perkin Elmer, Inc. LOT No.: 77-18151).

E. coli ATCC 25922 [5] = assay: Time kill experiments; assay type: cell-based; details: 1xMIC, exponentially growing cells, 5×10^5-1×10^6 CFU/ml, MHB-II; plateau, regrowth evident after 3 hours
[6] = 5 mg/kg IP at 1 and 3 h post infection
[7] = 10 mg/kg IP at 1 and 3 h post infection

CC[C@@H](C)[C@@H](NC(=O)[C@@H](CCCCN)NC(=O)[C@@H](CCCCN)NC(=O)[C@@H](Cc1ccccc1)NC(=O)[C@@H](CC(C)C)NC(=O)[C@@H](CCCCN)NC(=O)[C@H](N)CCCCN)C(=O)N[C@H](CC(C)C)C(=O)N[C@H](CCCNC(=N)N)C(=O)N[C@H](Cc1ccc(O)cc1)C(=O)N[C@H](CC(C)C)C(N)=O [ChIP]
HeLa cell survival (HeLa cells): greatly reduced survival
MIC [1]: 8 µg/mL (≈ 5.52 µM)
β-galactosidase activity (ONPG, OD420) of treated cells [2]: increased in a dose dependent manner
MIC [3]: 4 µg/mL (≈ 2.76 µM)
peritoneal bacterial titers after treatment (E. coli ATCC 25922 [4]; [6]): 1-5×10^5 CFU/ml
reduction of peritoneal bacterial titers (E. coli ATCC 25922 [4]; [6]): 2 logs
peritoneal CFUs after treatment (E. coli ATCC 25922 [4]; [7]): 1×10^3 CFU/ml
reduction of peritoneal CFUs (E. coli ATCC 25922 [4]; [7]): 4 logs
reduction of peritoneal bacterial titers relative to saline control (A. baumannii ATCC 19606; after 5 hours): 3-4 log
peritoneal bacterial titers (A. baumannii ATCC 19606; after 5 hours, saline control around 1×10^8 CFU/ml): 1×10^3-1×10^4 CFU/ml
bacterial blood titers (A. baumannii ATCC 19606; detection limit 50 CFU/ml): reduce CFU/ml to the detection limit
incorporation of radioactive labelled precursors into DNA, RNA, protein and peptidoglycan (E. coli MG1655): blocked incorporation
reduction in viable cells (E. coli ATCC 25922 [5]): 3-4 log
